From publication PMC8224453, “A New PqsR Inverse Agonist Potentiates Tobramycin Efficacy to Eradicate Pseudomonas aeruginosa Biofilms” (Advanced Science, 2021)
Converted amounts (≈) assume the structure as drawn. Like-named read-outs stand apart in the source and are kept apart here.

Experiments:
PqsR [1] = target: T1, PqsR (Pseudomonas aeruginosa, UniProt Q9I4X0); conditions: read-out: IC50 (PqsR); Figure 1B, earlier hits; cited from earlier work
T1 construct: which expresses PqsR and the β-galactosidase LacZ under the control of the pqsA promoter; expressed in transfected cells; host or cells: E. coli DH5α carrying plasmid pEAL08-2

PqsR [2] = target: T1, PqsR; experiment: PqsR β-galactosidase reporter-gene assay in E. coli DH5α; format: cell-based; conditions: for IC50 PqsR: E. coli reporter-gene assay, result in words
Method: 3. Primary Activity Assays
The inverse agonistic/antagonistic activity of potential PqsR ligands was evaluated in a β-galactosidase reporter gene assay in E. coli as previously described.[3] In short, test compounds were co-incubated with E. coli DH5α cells containing the plasmid pEAL08-2,[4] which expresses PqsR and the β-galactosidase LacZ under the control of the pqsA promoter.
The inverse agonistic/antagonistic activity of compounds was measured in the presence of 50 nM PQS. After incubation, galactosidase activity was quantified photometrically and expressed as ratio of controls. The given IC50 values represent the mean of at least two independent experiments using at least eight different concentrations of test compound with n = 4. Non-linear regression analysis was performed using OriginPro 2020. […]

[3] = tested on: pyocyanin production in PA14 wt; experiment: Pyocyanin assay in PA14 wt; format: cell-based; conditions: Pseudomonas aeruginosa, PA14, read-out: IC50 pyocyanin
Method: The pyocyanin inhibitory effect of the synthesized compounds and the compound (4) loaded SqNPs on PA14 wt were investigated by pyocyanin assay as described in previous work.[2,5] Briefly, PA14 wt was grown in PPGAS medium, overnight, at 37 °C, shaking at 200 rpm. The bacterial suspension was then centrifuged at 7.450 g, washed twice and diluted to a final OD600 (absorption at 600 nm) of 0.02 (2∙10^7 CFU/mL) in fresh PPGAS. 1.5 mL of the […]
(1 picture or pasted object on this page, not shown here) […]
culture was distributed in each well of the 24 well-plate. The free synthesized QSI prepared in DMSO, compound (4) loaded SqNPs were supplemented to bacteria-containing wells (1:100 dilutions). PA14 wt treated with either PBS or drug-free SqNPs (200 μg/mL) served as controls. Following 16 h incubation under aerobic conditions, pyocyanin in 900 μL of bacteria culture was extracted with chloroform and re-extracted with 0.2 M HCl. Pyocyanin production level was measured as the absorption at 520 nm, which was normalized to cell growth measured as OD600. 0.2 M HCl served as blank samples. Three independent experiments were conducted in triplicate. Non-linear regression analysis was performed using […]
(4) loaded SqNPs on PA14 wt. The pyocyanin inhibitory efficacy was improved by a factor of […]
It is noted that as reported in our prior
Figure S2. The production of pyocyanin levels compared to control PA14 wide type (wt) of the samples treated with 200 μg/mL drug free SqNPs. Three independent experiments were conducted in triplicate. […]
(also on this page, place not known: ( 4) -containing -free bacteria re -extracted compo und ( 4) (IC 50 nM ) (IC 50 nM ). drug P A14 5,6,7,8 -tetradeutero-2-heptyl-4(1H)-quinolone standa rd -40 -20 0 20 40 60 80 100 120 0.005 0.05 0.5 pyo production inhibition [%] Compound concentration loaded SqNPs [µM] IC50 = 100 ± 0.018 [nM])

[4] = Kinetic turbidimetric solubility assay; format: physicochemical; conditions: PBS, aqueous buffer, kinetic from dmso stock, read-out: Kinetic solubility S kin
Method: 5.4. Kinetic Turbidimetric Solubility Assay
The desired compounds were sequentially diluted in DMSO in a 96-well plate. A 3 µL of each well were transferred into another three 96-well plates, followed by addition of 147 µL of PBS. Plates were shaken for 5 min at 600 rpm at room temperature (r.t.), and the absorbance at 620 nm was measured. Absorbance values were normalized by blank […]
subtraction and plotted using GraphPad Prism 8.4.2 (GraphPad Software, San Diego, CA, […]

[5] = Metabolic stability half-life (matrix not given); format: in vitro ADME; conditions: matrix not stated; read-out: metabolic stability half-life t 1/2
Method: First, we evaluated the most promising compounds considering in vitro pharmacokinetic properties such as solubility and metabolic stability. […] Compounds 4 and 19 were moderately stable with half‐lives of 10 and 19 min, respectively.

T1 sequence (Q9I4X0 whole entry): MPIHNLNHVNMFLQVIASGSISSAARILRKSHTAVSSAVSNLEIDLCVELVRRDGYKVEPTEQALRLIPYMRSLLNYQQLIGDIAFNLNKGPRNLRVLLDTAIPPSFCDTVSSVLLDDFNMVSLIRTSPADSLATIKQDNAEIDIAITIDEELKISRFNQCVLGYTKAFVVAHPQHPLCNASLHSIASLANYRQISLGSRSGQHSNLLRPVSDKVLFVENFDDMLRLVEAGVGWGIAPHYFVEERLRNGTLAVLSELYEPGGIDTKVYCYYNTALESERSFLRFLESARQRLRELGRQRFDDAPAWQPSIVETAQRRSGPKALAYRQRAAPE

Compound	IC50 (PqsR [2]) [nM]	IC50 [3] [nM]	also measured
Nc1cccc(C(F)(F)F)n1 [Compound 1]	–	–	IC50 (PqsR [1]): 33100 nM
Fc1ccc(-n2cc(CNc3ccnc(C(F)(F)F)c3)nn2)cc1 [Compound 3]	196	> 5000	–
Fc1cccc(-n2cc(CNc3ccnc(C(F)(F)F)c3)nn2)c1 [Compound 5]	–	> 5000	IC50 PqsR (PqsR [2]): inactive
Fc1ccccc1-n1cc(CNc2ccnc(C(F)(F)F)c2)nn1 [Compound 6]	–	> 10000	IC50 PqsR (PqsR [2]): inactive
FC(F)(F)c1cc(NCc2cn(-c3ccccc3Cl)nn2)ccn1 [Compound 7]	–	> 5000	IC50 PqsR (PqsR [2]): inactive
FC(F)(F)c1cc(NCc2cn(-c3cccc(Cl)c3)nn2)ccn1 [Compound 8]	123	> 2500	–
FC(F)(F)c1cc(NCc2cn(-c3ccc(Cl)cc3)nn2)ccn1 [Compound 9]	79	7730	–
Oc1ccc(-n2cc(CNc3ccnc(C(F)(F)F)c3)nn2)cc1 [Compound 10]	–	–	IC50 PqsR (PqsR [2]): inactive ^a)
COc1ccc(-n2cc(CNc3ccnc(C(F)(F)F)c3)nn2)cc1 [Compound 11]	81	2500	–
FC(F)(F)Oc1ccc(-n2cc(CNc3ccnc(C(F)(F)F)c3)nn2)cc1 [Compound 12]	30	1180	–
FC(F)(F)c1ccc(-n2cc(CNc3ccnc(C(F)(F)F)c3)nn2)cc1 [Compound 13]	129	> 5000	–
N#Cc1ccc(-n2cc(CNc3ccnc(C(F)(F)F)c3)nn2)cc1 [Compound 14]	655	> 10000	–
FC(F)(F)c1cc(NCc2cn(-c3ccc(Nc4ccccc4)cc3)nn2)ccn1 [Compound 15]	31	1060	–
FC(F)(F)c1cc(NCc2cn(-c3ccc(Cl)c(Cl)c3)nn2)ccn1 [Compound 16]	24	354	–
FC(F)(F)Oc1ccc(-n2cc(CNc3ccnc(C(F)(F)F)c3)nn2)cc1Cl [Compound 18]	15	438	solubility kinetic at 5 min [4]: 31.3 µM (≈ 13.7 µg/mL); half-life [5]: 55 min
FC(F)(F)c1cc(NCc2cn(-c3ccc(Oc4ccccc4)c(Cl)c3)nn2)ccn1 [Compound 19]	12	181	half-life [5]: 19 min
Nc1cc(NCc2cn(-c3ccc(Oc4ccccc4)cc3)nn2)cc(C(F)(F)F)n1 [Compound 20]	–	351	solubility kinetic at 5 min [4]: 13 µM (≈ 5.54 µg/mL)
